Results from patent US20150126530A1, “Novel Substituted Imidazopyrimidines as Gpbar1 Receptor Modulators” (Torrent Pharmaceuticals Limited., priority 2011, published 2015).
Each block holds one compound with its values, some of them ahead of it.

Tests used:
human TGR5 [1] = target: T1, human TGR5 (Homo sapiens, UniProt Q8TDU6); test: cAMP Responsive Element (CRE)-Reporter Assay; format: cell-based; settings: luciferase activity relative to vehicle control, five hours, CHO cells transfected with human TGR5 and CRE-luciferase
T1 construct: host or cells: CHO cells (ATCC)
T1 sequence (Q8TDU6 1-330): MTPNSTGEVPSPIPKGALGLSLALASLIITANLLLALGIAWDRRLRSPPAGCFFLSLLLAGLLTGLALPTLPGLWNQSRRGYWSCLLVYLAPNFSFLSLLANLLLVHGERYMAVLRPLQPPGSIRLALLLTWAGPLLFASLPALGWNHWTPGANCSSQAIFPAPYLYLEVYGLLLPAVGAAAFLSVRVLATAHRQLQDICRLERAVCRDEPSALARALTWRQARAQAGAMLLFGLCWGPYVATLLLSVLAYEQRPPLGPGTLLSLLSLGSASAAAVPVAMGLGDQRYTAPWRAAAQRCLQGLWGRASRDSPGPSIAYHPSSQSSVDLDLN
Method: (A) cAMP Responsive Element (CRE)-Reporter Assay:
CHO cells (ATCC) were transfected with human TGR5 (oriGene) and CRE-luciferase reporter vector. Transfected cells were treated with vehicle control or test compounds (Conc 10 μM) for five hours and then lysed. Cell lysates were monitored for luciferase acivity. Increase in luciferase activity is considered as a result of TGR5 activation. Results were expressed as fold induction as compared to vehicle control.
Results are summarized in Table 2 where, + indicates 1.5-2 fold while ++, +++, ++++ indicate 2-3 fold, 3-4 fold, and >4 fold induction respectively relative to vehicle control when tested at 10 μM concentration.

human TGR5 [2] = target: T1, human TGR5; test: cAMP Measurement Assay (Alphascreen); format: cell-based; settings: cAMP levels, CHO cells transfected with human TGR5, one hour
Method: (B) cAMP Measurement Assay:
CHO cells (ATCC) were transfected with human TGR5 vector (oriGene). Transfected cells were treated with vehicle control or test compounds for one hour and then lysed. Levels of cAMP were measured in cell lysates employing Alphascreen cAMP assay kit (Perkin Elmer) and results were expressed EC50 values which are summarized in Table 3.

[3] = system: Human enteroendocrine cell-line (NCI-H716); test: Measurement of Glucagon Like Peptide-1 (GLP-1) secretion; format: cell-based; settings: NCI-H716 cells, one hour, with respect to vehicle control
Method: (C) Measurement of Glucagon Like Peptide-1 (GLP-1):
Human enteroendocrine cell-line (NCI-H716) were incubated with vehicle or test compounds for one hour. At the end of incubation period, levels of secreted GLP-1 in culture medium were measured by GLP-1 ELISA kit (Millipore). Results are summarized as fold increase in GLP secretion with respect to vehicle control in Table 4.

Diabetic Hamster [4] = test: Single dose efficacy on glucose tolerance (OGTT) in diabetic hamster; format: in vivo; settings: Mesocricetus auratus, read-out: Decrease in AUC of glucose % change w.r.t. vehicle control group
Method: i) Evaluation of Single Dose Efficacy of Test Compounds on Glucose Tolerance:
Thus efficacy can be assessed through the effect of test compounds on lowering of plasma glucose during OGTT through stimulating glucose stimulated insulin secretion.
The potential of test compounds in lowering of Plasma Glucose was evaluated in Oral glucose tolerance test (OGTT) in Diabetic Hamster Model, where diabetes has been induced by administration of low dose of Streptozotocin (STZ) to the High fat diet (HFD) fed glucose intolerant animals. The diabetic hamsters show impaired glucose stimulated insulin secretion and higher plasma glucose excursions than the normal animals, which remains elevated beyond 2 hrs post glucose load. Thus the animal model can be used for evaluating the potential of test compounds to lower plasma glucose through stimulating glucose stimulated insulin secretion. On the day of study post 6 hrs of fasting, test compounds or vehicle was administered orally at dose volume of 2 ml/kg to the hamsters of the respective treatment groups. Subsequent to dosing, a pre-glucose load blood sample was taken. A glucose load of 40% solution at 5 ml/Kg dose volume was administered orally. Blood samples through retroorbital plexus were taken at 15, 30 60 & 120 min. post glucose load and plasma was separated for glucose measurement. Post glucose load percentage change in plasma glucose and AUC of % change glucose by the treatment was assessed.

Diabetic Hamster [5] = test: Efficacy study on repeated dosing in diabetic hamster; format: in vivo; settings: for HOMA-IR: from fasting glucose and insulin
Method: (§1) ii) Evaluation of Efficacy of Test Compounds on Repeated Dosing in Diabetic Hamster and DIO Mice. […]
a) Efficacy Study in Diabetic Hamster
Diabetic hamsters were randomized to two treatment groups viz. vehicle treated and test compound treated group. Then the animals were treated with compound 7 of present invention or vehicle for 2 weeks to assess the efficacy potential of the compound. Effect of treatment on glucose excursion and insulin secretion during OGTT, change in body weight & fasting and random plasma triglycerides (TG) was evaluated during the treatment period. The effect of repeated administration of compound on energy expenditure was evaluated through monitoring oxygen consumption (VO2) over 21 hrs period by indirect calorimetry (Oxymax System, Columbus Instruments). HOMA-IR an index of insulin resistance was estimated using fasting glucose and insulin levels estimated during OGTT.
Similarly, the study was conducted using compound no 50 of the present invention for the duration of four week period in Diabetic hamsters.

DIO mice = test: Efficacy study on repeated dosing in DIO mice; format: in vivo; settings: od; for % Change in body wt from basal: repeated administration
Method: as §1
b) Efficacy Study in DIO Mice
Male C57B1/6J mice were made insulin resistant by feeding on High fat diet (45.5% Kcal from Fat, Research Diet) from the age of 6-8 week onwards. After being on High fat diet for 6-8 weeks the animals with similar body weights & fasting plasma glucose were further randomized into treatment groups. Then the animals were treated with compounds 7 to assess the efficacy potential during treatment duration. Effect of treatment on glucose excursion and insulin secretion during OGTT, Fasting Plasma Glucose & Insulin, lipid profile and body weight were evaluated. The compound for enhancing energy expenditure was evaluated by monitoring oxygen consumption (VO2) and carbon dioxide release (VCO2) over 24 hrs period by indirect calorimetry (Oxymax System, Columbus Instruments).
Similarly, the study was conducted in DIO mice with compound no 50 of the present invention.

[6] = 20 mg/kg, po, bid, 2 weeks, listed as compound no. 7, 20 mg/kg
[7] = compound no. 7 repeated dosing, 2 weeks
[8] = 1.5 mg/kg, listed as compound no. 7, 1.5 mg/kg
[9] = 6 mg/kg, i.p. OD, four week, listed as compound no. 50, 6 mg/kg
[10] = compound no. 50 repeated dosing, four week
[11] = 9 mg/kg, listed as compound no. 50, 9 mg/kg

fold induction at 10 µM (human TGR5 [1]): > 4
EC50 (human TGR5 [2]): 90 nM
Structure (SMILES): CN(C(=O)c1c(-c2ccc(F)cc2)nc2ncccn12)c1ccc(Cl)cc1 [Compound no. 7, N-(4-chlorophenyl)-2-(4-fluorophenyl)-N-methylimidazo[1,2-a]pyrimidine-3-carboxamide]
Fold increase in GLP Release [3]: 3.72 fold
inhibition in vivo at 38 mg/kg (Diabetic Hamster [4]; single oral dose 38 mg/kg): 39%
% Change in body wt fro basal (Diabetic Hamster [5]; 20 mg/kg, po, bid, 2 weeks): −5.2 ± 1.6%
AUC_Insulin % change during OGTT (Diabetic Hamster [5]; 20 mg/kg, po, bid, 2 weeks): 2280.6 ± 428.8
AUC_glucose % change during OGTT (Diabetic Hamster [5]; 20 mg/kg, po, bid, 2 weeks): 12714.43 ± 912
Fasting plasma TG (Diabetic Hamster [5]; 20 mg/kg, po, bid, 2 weeks): 188.35 ± 3.7 mg/dL
Random plasma T (Diabetic Hamster [5]; 20 mg/kg, po, bid, 2 weeks): 344.38 ± 90.3 mg/dL
HOMA-IR (Diabetic Hamster [5]; 20 mg/kg, po, bid, 2 weeks): 15.6 ± 2.1
HOMA-IR (Diabetic Hamster [5]; [6]): decrease in HOMA-IR
Oxygen consumption (Diabetic Hamster [5]; 20 mg/kg, po, bid, 2 weeks, indirect calorimetry over 21 hrs): 1353.06 ± 38.3 mL/kg/h
Oxygen consumption (Diabetic Hamster [5]; 20 mg/kg, po, bid, 2 weeks, indirect calorimetry over 21 hrs, listed as compound no. 7, 20 mg/kg): increased energy expenditure
% Change in body wt fro basal (Diabetic Hamster [5]; [6]): reduced body weight
AUC_Insulin % change during OGTT (Diabetic Hamster [5]; [6]): improved insulin secretion
AUC_glucose % change during OGTT (Diabetic Hamster [5]; [6]): reduced glucose excursion
Fasting plasma TG (Diabetic Hamster [5]; [6]): decreased plasma TG levels
decrease in LDL (Diabetic Hamster [5]; [7]): 14%
decrease in non HDL (Diabetic Hamster [5]; [7]): 24%
improvement in HDL:LDL ratio (Diabetic Hamster [5]; [7]): 24%
increase in HDL (Diabetic Hamster [5]; [7]): 7%
AUC_Insulin % change during OGTT (DIO mice; 1.5 mg/kg): 5431.0 ± 920.9
AUC_glucose % change during OGTT (DIO mice; 1.5 mg/kg): 4526.7 ± 876.8
Fasting plasma TG (DIO mice; 1.5 mg/kg): 40.4 ± 2.3 mg/dL
HOMA-IR (DIO mice; 1.5 mg/kg): 4.7 ± 1.68
Oxygen consumption (DIO mice; 1.5 mg/kg, indirect calorimetry over 24 hrs): 3116.3 ± 106.1 mL/kg/h
Oxygen consumption (DIO mice; 1.5 mg/kg, indirect calorimetry over 24 hrs, listed as compound no. 7, 1.5 mg/kg): increased energy expenditure
AUC_Insulin % change during OGTT (DIO mice; [8]): improved insulin secretion
AUC_glucose % change during OGTT (DIO mice; [8]): reduced glucose excursion
Fasting plasma TG (DIO mice; [8]): decreased plasma TG levels
HOMA-IR (DIO mice; [8]): decrease in HOMA-IR
% Change in body wt from basal (DIO mice; 1.5 mg/kg): −3.19 ± 1.32%
% Change in body wt from basal (DIO mice; [8]): reduced body weight

Structure (SMILES): CN(C(=O)c1c(Oc2ccc(F)cc2)nc2ncccn12)c1ccc(Cl)cc1 [Compound no. 50, N-(4-chlorophenyl)-2-(4-fluorophenoxy)-N-methylimidazo[1,2-a]pyrimidine-3-carboxamide]
fold induction at 10 µM (human TGR5 [1]): > 4
EC50 (human TGR5 [2]): 354 nM
Fold increase in GLP Release [3]: 1.74 fold
inhibition in vivo at 40 mg/kg (Diabetic Hamster [4]; single oral dose 40 mg/kg): 10%
% Change in body wt from basal (Diabetic Hamster [5]; 6 mg/kg, i.p. OD, four week): −1.56%
AUC_glucose % change during OGTT (Diabetic Hamster [5]; 6 mg/kg, i.p. OD, four week): 6225.7
Fasting plasma TG (Diabetic Hamster [5]; 6 mg/kg, i.p. OD, four week): 97.8 mg/dL
Oxygen consumption (Diabetic Hamster [5]; 6 mg/kg, i.p. OD, four week): 1500.55 mL/kg/h
% Change in body wt from basal (Diabetic Hamster [5]; [9]): reduced body weight
AUC_glucose % change during OGTT (Diabetic Hamster [5]; [9]): reduced glucose excursion
Fasting plasma TG (Diabetic Hamster [5]; [9]): decreased plasma TG levels
Oxygen consumption (Diabetic Hamster [5]; [9]): increased energy expenditure
decrease in LDL (Diabetic Hamster [5]; [10]): 16%
decrease in non HDL (Diabetic Hamster [5]; [10]): 24%
improvement in HDL:LDL ratio (Diabetic Hamster [5]; [10]): 16%
AUC_Insulin % change during OGTT (DIO mice; 9 mg/kg): 12938.8
AUC_glucose % change during OGTT (DIO mice; 9 mg/kg): 7763.5
HOMA-IR (DIO mice; 9 mg/kg): 1.96
Oxygen consumption (DIO mice; 9 mg/kg): 2767.50 mL/kg/h
AUC_Insulin % change during OGTT (DIO mice; [11]): improved insulin secretion
AUC_glucose % change during OGTT (DIO mice; [11]): reduced glucose excursion
HOMA-IR (DIO mice; [11]): decrease in HOMA-IR
Oxygen consumption (DIO mice; [11]): increased energy expenditure
% Change in body wt from basal (DIO mice; 9 mg/kg): −3.29%
% Change in body wt from basal (DIO mice; [11]): reduced body weight
